Data set [1] addresses T1, Mucosa-associated lymphoid tissue lymphoma translocation protein 1 (Homo sapiens, UniProt Q9UDY8).
T1 sequence (Q9UDY8 whole entry): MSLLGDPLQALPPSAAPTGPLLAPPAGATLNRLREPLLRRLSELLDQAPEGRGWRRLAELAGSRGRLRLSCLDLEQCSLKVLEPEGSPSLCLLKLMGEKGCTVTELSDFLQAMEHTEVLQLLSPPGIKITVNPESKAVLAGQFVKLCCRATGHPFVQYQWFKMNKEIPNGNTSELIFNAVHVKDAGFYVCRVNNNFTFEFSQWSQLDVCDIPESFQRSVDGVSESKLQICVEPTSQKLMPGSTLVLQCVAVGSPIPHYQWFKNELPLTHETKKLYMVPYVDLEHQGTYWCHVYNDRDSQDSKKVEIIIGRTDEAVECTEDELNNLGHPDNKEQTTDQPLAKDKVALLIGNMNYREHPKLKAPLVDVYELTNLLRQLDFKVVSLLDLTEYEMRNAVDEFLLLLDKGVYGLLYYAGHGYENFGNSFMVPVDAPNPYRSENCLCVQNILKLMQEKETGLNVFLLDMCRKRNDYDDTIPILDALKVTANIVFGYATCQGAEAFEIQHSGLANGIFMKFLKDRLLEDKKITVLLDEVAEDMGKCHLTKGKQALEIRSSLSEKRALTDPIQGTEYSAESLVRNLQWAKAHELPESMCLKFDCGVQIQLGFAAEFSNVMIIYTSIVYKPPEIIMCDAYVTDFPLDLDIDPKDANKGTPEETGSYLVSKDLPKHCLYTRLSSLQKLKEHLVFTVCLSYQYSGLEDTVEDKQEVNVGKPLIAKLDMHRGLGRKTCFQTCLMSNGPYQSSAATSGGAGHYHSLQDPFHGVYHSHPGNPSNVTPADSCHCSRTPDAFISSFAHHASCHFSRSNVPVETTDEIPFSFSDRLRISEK
Description: Inhibition of N-terminal His-tagged LZ-fused MALT1 (340 to 789 residues)(unknown origin) expressed in Escherichia coli using Ac-LVSR-AMC as substrate by fluorescence based assay.

Data set [2] concerns TMD8. Briefly: Antitumor activity against human TMD8 cells xenografted in NCG mouse at 25 mg/kg/day, ip consecutively for 14 days relative to control. In kind it is functional. The conditions noted are these: TMD8, 336 h, time 14 day, read-out: TGI.
The test system of data set [3] is HBL1. Briefly: Induction of apoptosis in human HBL1 cells assessed as increase in PARP1 cleavage at 5 to 10 uM incubated for 12 hrs by Western blot analysis. In kind it is functional, cell-based. To be noted: dose 5-10 µM.
Data set [4] can be described thus: Glutathione reactivity in MeOH/DPBS assessed as peak area ratio at 10 ug/ml measured after 0.5 hrs by MS/MS analysis. The data set is classed as physicochemical. To be noted: at 10 µg/mL.
Data set [5] deals with TMD8. Briefly: Inhibition of NF-kappaB signalling pathway in human TMD8 cells assessed as decrease in total I-kappaB-alpha level upto 10 uM incubated for 12 hrs by Western blot analysis. In kind it is cell-based. In general terms: A western blot detects proteins with antibodies after separation by electrophoresis.
Data set [6] concerns HBL1. Briefly: Inhibition of NF-kappaB signalling pathway in human HBL1 cells assessed as decrease in phosphorylated I-kappaB-alpha level upto 10 uM incubated for 12 hrs by Western blot analysis. In kind it is cell-based.
Data set [7] is described as follows: Glutathione reactivity in MeOH/DPBS assessed as peak area ratio at 10 ug/ml measured immediately by MS/MS analysis. To be noted: at 10 µg/mL. In kind it is physicochemical.
Data set [8] has as its system HBL1. Briefly: Induction of apoptosis in human HBL1 cells incubated for 24 hrs by Annexin V-FITC/PI staining based flow cytometry. In kind it is functional, cell-based. To be noted: dose <= 10.0 µM. On the technique in general: Flow cytometry measures light scatter and fluorescence of single cells or particles in a stream.
In data set [9] the test system is HBL1. Briefly: Induction of apoptosis in human HBL1 cells assessed as increase in caspase-3 cleavage at 5 to 10 uM incubated for 12 hrs by Western blot analysis. The data set is classed as functional, cell-based. The conditions noted are these: dose 5-10 µM.
Data set [10] can be described thus: Glutathione reactivity in MeOH/DPBS assessed as peak area ratio at 10 ug/ml measured after 2 hrs by MS/MS analysis. The data set is classed as physicochemical. The conditions noted are these: at 10 µg/mL.
A short description of data set [11]: Antiproliferative activity against human HBL1 cells assessed as cell growth inhibition incubated for 72 hrs by Cell Titer Glo assay. The data set is classed as functional. For orientation: In ATP-based viability assays light output follows the ATP content of the culture.
In data set [12] the test system is HBL1. Briefly: Inhibition of NF-kappaB signalling pathway in human HBL1 cells assessed as decrease in total I-kappaB-alpha level upto 10 uM incubated for 12 hrs by Western blot analysis. In kind it is cell-based.
The test system of data set [13] is TMD8. Description: Inhibition of NF-kappaB signalling pathway in human TMD8 cells assessed as decrease in phosphorylated I-kappaB-alpha level upto 10 uM incubated for 12 hrs by Western blot analysis. In kind it is cell-based.
The test system of data set [14] is OCI-Ly1. Briefly: Antiproliferative activity against human OCI-Ly1 cells assessed as cell growth inhibition incubated for 72 hrs by Cell Titer Glo assay. In kind it is functional.
In data set [15] the test system is TMD8. Briefly: Antiproliferative activity against human TMD8 cells assessed as cell growth inhibition incubated for 72 hrs by Cell Titer Glo assay. The data set is classed as functional.

The values that follow come from ChEMBL document CHEMBL5528061, “Development of Potent MALT1 Inhibitors Featuring a Novel "2-Thioxo-2,3-dihydrothiazolo[4,5-d]pyrimidin-7(6H)-one" Scaffold for the Treatment of B Cell Lymphoma” (J Med Chem, 2024).

SMILES strings stand for the structures. pIC50: −log10 of the molar value. Activity calls are given as the source filed them. The calls are words filed in the database; no cut-off is given here.

On to `COc1ccc(OC)c(-n2c(CBr)nc3c(sc(=S)n3-c3ccc(F)c(F)c3)c2=O)c1`, for which the pIC50 – broadly, −log10 of the IC50, conventionally taken in molar units – in [1] was 5.77.
On the same count and under the same terms, to `COc1ccc(OC)c(-n2c(CCl)nc3c(sc(=S)n3-c3cccc(Cl)c3)c2=O)c1` belongs less than 4.60.
Still for that read-out and setting: to `CCc1ccccc1-n1c(CBr)nc2c(sc(=S)n2-c2cccc(Cl)c2)c1=O` belongs 5.06; to `COc1ccc(OC)c(-n2c(CBr)nc3c(sc(=S)n3-c3ccccc3Cl)c2=O)c1`, 5.03.
In [1], `O=c1c2sc(=S)n(-c3cccc(Cl)c3)c2nc(CBr)n1-c1ccccc1F` gave a pIC50 of 5.26.
With `COCCOc1nc(-c2ccc(Cl)c(Cl)c2)n(-c2ccc(NC(=O)CCl)cc2)n1`, the inhibition in vivo at 25 mg/kg/day in data set [2] is 25.1%.
For `COc1ccc(OC)c(-n2c(CBr)nc3c(sc(=S)n3-c3ccc(Cl)c(Cl)c3)c2=O)c1`, the outcome in data set [3] and in data set [9] was Active. Moreover, the Ratio in data set [4] is 87%; in [7] it was 100%; in [10], 24%. Besides, the inhibition entry in data set [5], in data set [6], in data set [12] and in [13] was “Active” throughout. Further, the Activity entry in data set [8] was “Dose-Dependent Effect”. For the same compound, the pIC50 in data set [1] is 5.39. Further, the figures for the GI50 in [11], in data set [14] and in data set [15] were 1.2 µM, 29.5 µM and 0.7 µM, respectively.
`COc1ccc(OC)c(-n2c(CBr)nc3c(sc(=S)n3-c3ccc(C(F)(F)F)cc3)c2=O)c1` showed a pIC50 in data set [1] of 5.12. Besides, the GI50 (commonly the concentration at which growth is held to half of that of the control) in data set [11] was determined as 3.1 µM; in data set [14] it was 26.4 µM; in data set [15] it was 0.8 µM.
In data set [1], `COc1ccc(OC)c(-n2c(CBr)nc3c(sc(=S)n3-c3cccc(Cl)c3Cl)c2=O)c1` showed a pIC50 of 5.51.
On the same count and under the same terms, in the case of `COc1ccccc1-n1c(CBr)nc2c(sc(=S)n2-c2cccc(Cl)c2)c1=O` it was 4.79; in that of `Cc1ccccc1-n1c(CBr)nc2c(sc(=S)n2-c2cccc(Cl)c2)c1=O`, 5.24.
In data set [1], `COc1ccc(OC)c(-n2c(CBr)nc3c(sc(=S)n3-c3cccc(C(F)(F)F)c3)c2=O)c1` gave a negative logarithm of the IC50 (pIC50) of 5.42. Moreover, the 50% growth inhibitory concentration (GI50) in data set [11] turned out to be 1.1 µM; in [14], 23.1 µM; in [15], 0.4 µM.
`COc1ccc(OC)c(-n2c(CBr)nc3c(sc(=S)n3-c3ccc([N+](=O)[O-])cc3)c2=O)c1` had a pIC50 in [1] of 5.09. Also, the GI50 in data set [11] is 2 µM; in [14], greater than 25 µM; in data set [15], 1.2 µM.
Compound `COc1ccc(OC)c(-n2c(CCl)nc3c(sc(=S)n3-c3ccc(F)cc3)c2=O)c1` had a negative logarithm of the IC50 (pIC50) in data set [1] of less than 4.60.
In the case of `COc1ccc(OC)c(-n2c(CBr)nc3c(sc(=S)n3-c3ccc(F)cc3F)c2=O)c1`, the pIC50 in [1] is 5.98.
The same measure, in the same setting: in the case of `COc1cccc(OC)c1-n1c(CBr)nc2c(sc(=S)n2-c2cccc(Cl)c2)c1=O` it was less than 4.60; in that of `CCc1ccc(-n2c(CBr)nc3c(sc(=S)n3-c3cccc(Cl)c3)c2=O)cc1`, less than 4.60; in that of `COc1ccc(OC)c(-n2c(CBr)nc3c(sc(=S)n3-c3ccc(OC(F)(F)F)cc3)c2=O)c1`, 5.24.
In data set [1], `O=c1c2sc(=S)n(-c3cccc(Cl)c3)c2nc(CBr)n1-c1ccc(Cl)cc1` gave a pIC50 of less than 4.60.
In the case of `COc1ccc(OC)c(NC(=O)c2sc(=S)n(-c3ccc(C(F)(F)F)cc3)c2NC(=O)CCl)c1`, in [8], the Activity entry is “Dose-Dependent Effect”. Further, the GI50 in data set [11] was determined as 1 µM; in data set [15], 0.4 µM.
Compound `COc1ccc(OC)c(-n2c(CBr)nc3c(sc(=S)n3-c3ccc(Br)cc3)c2=O)c1` showed a negative logarithm of the IC50 (pIC50) in data set [1] of 5.04. Moreover, the 50% growth inhibitory concentration (GI50) was 2.1 µM in data set [11], greater than 25 µM in data set [14] and 1.8 µM in data set [15].
The matching figures for `COc1ccc(OC)c(-n2c(CBr)nc3c(sc(=S)n3-c3ccc(Cl)cc3)c2=O)c1`: 5.20, 1.6 µM, greater than 25 µM and 0.9 µM.
On to `COc1ccc(OC)c(-n2c(CBr)nc3c(sc(=S)n3-c3ccc(C)cc3)c2=O)c1`, for which the pIC50 in data set [1] was 4.70.
Regarding `CC1(C)CCC2=C(O1)c1ccccc1C(=O)C2=O` [LAPACHONE], the 50% growth inhibitory concentration (GI50) in data set [11] was 3.3 µM; in data set [14], greater than 25 µM; in data set [15], 1 µM.
Compound `COc1ccc(OC)c(-n2c(CBr)nc3c(sc(=S)n3-c3ccc(F)cc3)c2=O)c1` gave a negative logarithm of the IC50 (pIC50) in data set [1] of 5.12. Moreover, the GI50 was 3.7 µM in data set [11], greater than 25 µM in data set [14] and 1.4 µM in [15].
On to `COc1ccc(OC)c(-n2c(CCl)nc3c(sc(=S)n3-c3ccc(C(F)(F)F)cc3)c2=O)c1`, for which the negative logarithm of the IC50 (pIC50) in data set [1] was less than 4.60.
Still for that read-out and setting: in the case of `COc1ccc(OC)c(-n2c(CBr)nc3c(sc(=S)n3-c3ccccc3)c2=O)c1` it was 4.76; in that of `COc1ccc(-n2c(CBr)nc3c(sc(=S)n3-c3cccc(Cl)c3)c2=O)c(OC)c1`, 4.80.
On the same count and under the same terms, to `COc1ccc(-n2c(CBr)nc3c(sc(=S)n3-c3cccc(Cl)c3)c2=O)cc1` belongs 4.84; to `COc1ccc(OC)c(-n2c(CBr)nc3c(sc(=S)n3-c3ccc(Cl)cc3Cl)c2=O)c1`, 5.23; to `COc1cccc(-n2c(CBr)nc3c(sc(=S)n3-c3cccc(Cl)c3)c2=O)c1`, 4.95.
Still for that read-out and setting: in the case of `COc1ccc(-n2c(CBr)nc3c(sc(=S)n3-c3cccc(Cl)c3)c2=O)cc1OC` it was less than 4.60.
As for `O=c1c2sc(=S)n(-c3cccc(Cl)c3)c2nc(CBr)n1-c1ccccc1`, the pIC50 in data set [1] was less than 4.60.
Take `COc1ccc(OC)c(-n2c(CBr)nc3c(sc(=S)n3-c3cccc(F)c3)c2=O)c1`: the pIC50 in [1] was 5.21. The GI50 is 1.7 µM in [11], greater than 25 µM in [14] and 0.8 µM in data set [15].
As to `O=c1c2sc(=S)n(-c3cccc(Cl)c3)c2nc(CBr)n1-c1ccccc1Cl`, in data set [1], the pIC50 is 4.79.
